Measurements: US10172868B2, “Substituted quinazolines for inhibiting kinase activity” (NeuPharma, Inc., priority 2013, dated 2019)

Assays:
H1975 cells = assay: Inhibition of cancer cell growth, MTT assay, H1975; details: Homo sapiens, NCI-H1975, 72 h, read-out: IC50 in H1975 cells
H1299 cells = assay: Inhibition of cancer cell growth, MTT assay, H1299; details: Homo sapiens, NCI-H1299, 72 h, read-out: IC50 in H1299 cells
Experimental: Inhibition of cell growth by compounds was measured using MTT assay (Mosmann, T., Journal of Immunological Methods, 1983, 65, 55-63). Tumor cell lines were purchased from ATCC (American Type Culture Collection, Manassas, Va.). All cell lines were maintained in RPMI 1640 (Hyclone) supplemented with 10% fetal bovine serum (FBS, Hyclone), glutamine (2 mM, Hyclone), and antibiotics (penicillin 100 U/mL and streptomycin 50 μg/mL) at 37° C. in a humidified atmosphere of 5% CO2 in air. Taxol (as a positive control. Sigma) and compounds were dissolved in DMSO (Sigma), and the final concentration of DMSO in the medium was 1%. Tumor cells were plated in 96-well plates at densities of about 4000 cells/well of a 96-well plate and allowed to adhere/grow for 24 h. They were then treated with various concentrations of drug for 72 h, 3-(4,5-Dimethylthiazol-2-yl)-2,5-diphenyltetrazolium bromide (MTT, Sigma) was used to determine the number of viable cells at the time of compound addition and the number of cells remaining after 72 h compound exposure. The number of cells remaining after 72 h was compared to the number of viable cells at the time of compound addition by measuring the absorbance at 570 nm, allowing for the calculation of growth inhibition.
(§1) All concentrations of compounds were tested in triplicate and controls were averaged over 4 wells. IC50 was calculated by plotting the concentration of compound vs the percentage of inhibition in treated wells using GraphPad Prism 5.

EGFR (ErbB1) = EGFR (ErbB1) (Homo sapiens (Human), UniProt P00533); assay: Z'-LYTE kinase inhibition assay, EGFR; type: biochemical; details: read-out: % inhibition against EGFR (Compound at 1 μM)
How it was run: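 Z'-LYTE FRET assay run with 1.1-5.25 ng EGFR and 2 μM peptide substrate in 50 mM HEPES pH 7.5, 10 mM MgCl2, 2 mM MnCl2, 1 mM EGTA, 1 mM DTT, 0.01% BRIJ-35, 1% DMSO. Kinase reaction 60 min at room temperature, then 60 min development; IC50 from 10-point 3-fold titrations.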

EGFR (ErbB1) T790M L858R = EGFR (ErbB1) T790M L858R (Homo sapiens (Human), UniProt P00533, L858R/T790M); assay: Z'-LYTE kinase inhibition assay, EGFR L858R/T790M; type: biochemical; details: read-out: IC50 against EGFR L858R/T790M
How it was run: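 Z'-LYTE FRET peptide assay at 1% DMSO, 10-point 3-fold titrations; kinase/peptide mix in 50 mM HEPES pH 6.5, 0.01% BRIJ-35, 10 mM MgCl2, 1 mM EGTA, 0.02% NaN3. Kinase reaction ran 60 min at room temperature, followed by 60 min development and a fluorescence read. IC50 derived from the concentration series.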

A431 cells = assay: cells; details: Homo sapiens, A-431, 72 h, read-out: IC50 in A431 cells
Experimental: (§2) Taxol (as a positive control. Sigma) and compounds were dissolved in DMSO (Sigma), and the final concentration of DMSO in the medium was 1%. Tumor cells were plated in 96-well plates at densities of about 4000 cells/well of a 96-well plate and allowed to adhere/grow for 24 h. They were then treated with various concentrations of drug for 72 h, 3-(4,5-Dimethylthiazol-2-yl)-2,5-diphenyltetrazolium bromide (MTT, Sigma) was used to determine the number of viable cells at the time of compound addition and the number of cells remaining after 72 h compound exposure. The number of cells remaining after 72 h was compared to the number of viable cells at the time of compound addition by measuring the absorbance at 570 nm, allowing for the calculation of growth inhibition.
as §1
(§3) The scale utilized in Tables 5 is as follows: +++ less than 100 nM; ++ between 100 nM and 500 nM; and + greater than 500 nM.

BTK = BTK (Homo sapiens (Human), UniProt Q06187); assay: Z'-LYTE kinase inhibition assay, BTK; type: biochemical; details: compound at 0.041 μM; read-out: % inhibition against BTK
How it was run: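 Z'-LYTE FRET assay with Tyr 01 peptide in 50 mM HEPES pH 7.5, 10 mM MgCl2, 1 mM EGTA, 0.01% BRIJ-35. Compounds in 1% DMSO were tested as 10-point, 3-fold titrations.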

HCC827 cells = assay: cells; details: Homo sapiens, HCC827, 72 h, read-out: IC50 in HCC827 cells
Experimental: as §2, §1, §3

JAK2 = JAK2 (Homo sapiens (Human), UniProt O60674); assay: Z'-LYTE kinase inhibition assay, JAK2; type: biochemical; details: compound at 0.041 μM; read-out: % inhibition against JAK2
Experimental: Inhibitory activities of compounds against BTK, EGFR and EGFR mutants (EGFR L858R, EGFR T790M, EGFR L858R/T790M), FGFR1, FGFR2, JAK2, JAK3 and KDR were measured by Invitrogen using Z'-LYTE® Method as briefly described in the following.
Test Compounds are screened in 1% DMSO (final) in the well. For 10 point titrations, 3-fold serial dilutions are conducted from the starting concentration. All ATP Solutions are diluted to a 4× working concentration in Kinase Buffer (50 mM HEPES pH 7.5, 0.01% BRIJ-35, 10 mM MgCl2, 1 mM EGTA). Peptide/Kinase Mixtures are diluted to a 2× working concentration in the appropriate Kinase Buffers as described below.
(v) Peptide/Kinase Mixtures for Measurement of JAK2:
The 2×JAK2/Tyr 06 mixture is prepared in 50 mM HEPES pH 7.5, 0.01% BRIJ-35, 10 mM MgCl2, 1 mM EGTA. The final 10 μL Kinase Reaction consists of 0.06-0.81 ng JAK2 and 2 μM Tyr 06 in 50 mM HEPES pH 7.5, 0.01% BRIJ-35, 10 mM MgCl2, 1 mM EGTA. After the 1 hour Kinase Reaction incubation, 5 μL of a 1:64 dilution of Development Reagent A is added.
Reaction starts by 30-second shaking of mixture consisting of 2.5 μL 4× test compound, […] 2× kinase reaction mixture and 2.5 μL 4×ATP Solution on Bar-coded Corning, low volume NBS, black 384-well plate (Corning Cat. #3676). Then the mixture is incubated for 60-minute at room temperature for the kinase reaction, followed by addition of 5 μL of a 1:1024 dilution of development reagent A and 30-second plate shake. The mixture is then incubated for another 60-minute at room temperature for development reaction. Finally fluorescence is read by plate reader.

Chain of EGFR (ErbB1) (P00533 25-1210): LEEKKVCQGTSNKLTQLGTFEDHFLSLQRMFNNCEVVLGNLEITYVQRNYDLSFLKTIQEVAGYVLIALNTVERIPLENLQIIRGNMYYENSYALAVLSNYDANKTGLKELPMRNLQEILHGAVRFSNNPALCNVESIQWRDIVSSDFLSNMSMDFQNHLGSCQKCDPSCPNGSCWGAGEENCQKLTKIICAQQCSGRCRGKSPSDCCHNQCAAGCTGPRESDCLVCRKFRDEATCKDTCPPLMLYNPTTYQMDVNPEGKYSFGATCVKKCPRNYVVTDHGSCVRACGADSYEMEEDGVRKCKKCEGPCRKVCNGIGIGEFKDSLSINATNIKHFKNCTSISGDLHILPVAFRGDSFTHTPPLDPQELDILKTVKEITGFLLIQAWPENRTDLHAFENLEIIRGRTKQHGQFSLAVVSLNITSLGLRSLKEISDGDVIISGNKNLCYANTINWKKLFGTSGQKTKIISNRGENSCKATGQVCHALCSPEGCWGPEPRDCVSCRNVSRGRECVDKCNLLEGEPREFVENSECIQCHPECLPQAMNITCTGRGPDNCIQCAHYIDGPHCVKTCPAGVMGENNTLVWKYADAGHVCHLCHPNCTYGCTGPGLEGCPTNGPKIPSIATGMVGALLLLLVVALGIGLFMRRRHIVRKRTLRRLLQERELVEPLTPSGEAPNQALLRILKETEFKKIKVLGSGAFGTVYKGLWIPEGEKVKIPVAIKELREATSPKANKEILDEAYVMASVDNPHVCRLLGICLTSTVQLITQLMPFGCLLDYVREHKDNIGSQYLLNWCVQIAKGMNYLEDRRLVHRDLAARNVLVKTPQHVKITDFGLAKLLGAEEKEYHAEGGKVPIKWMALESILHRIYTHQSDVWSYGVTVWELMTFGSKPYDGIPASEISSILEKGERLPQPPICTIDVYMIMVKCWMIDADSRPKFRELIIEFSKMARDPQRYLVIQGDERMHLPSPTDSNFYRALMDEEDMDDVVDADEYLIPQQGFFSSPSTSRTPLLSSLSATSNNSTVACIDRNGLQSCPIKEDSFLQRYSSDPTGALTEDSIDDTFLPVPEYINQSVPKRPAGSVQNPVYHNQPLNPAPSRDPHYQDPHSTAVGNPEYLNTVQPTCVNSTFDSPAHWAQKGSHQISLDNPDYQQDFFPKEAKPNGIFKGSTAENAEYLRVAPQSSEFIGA
Chain of BTK (Q06187 whole entry): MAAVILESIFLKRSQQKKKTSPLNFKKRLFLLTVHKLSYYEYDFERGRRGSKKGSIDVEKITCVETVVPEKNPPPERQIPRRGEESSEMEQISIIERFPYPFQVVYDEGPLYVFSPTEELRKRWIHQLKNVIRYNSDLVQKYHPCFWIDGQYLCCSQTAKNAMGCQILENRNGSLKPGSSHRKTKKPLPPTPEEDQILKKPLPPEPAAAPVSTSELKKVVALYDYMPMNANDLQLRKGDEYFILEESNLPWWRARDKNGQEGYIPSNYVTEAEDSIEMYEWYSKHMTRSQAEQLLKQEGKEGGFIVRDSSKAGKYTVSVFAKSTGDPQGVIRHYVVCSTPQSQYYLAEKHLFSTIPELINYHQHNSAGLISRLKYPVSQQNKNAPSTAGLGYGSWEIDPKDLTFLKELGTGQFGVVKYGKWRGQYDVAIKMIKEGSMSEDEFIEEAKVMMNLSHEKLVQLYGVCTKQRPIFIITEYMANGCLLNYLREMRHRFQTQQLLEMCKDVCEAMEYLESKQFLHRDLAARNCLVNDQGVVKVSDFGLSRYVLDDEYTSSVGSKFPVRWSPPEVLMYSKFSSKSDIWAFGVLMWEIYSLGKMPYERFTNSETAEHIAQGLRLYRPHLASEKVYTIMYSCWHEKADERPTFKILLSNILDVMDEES
Chain of JAK2 (O60674 whole entry): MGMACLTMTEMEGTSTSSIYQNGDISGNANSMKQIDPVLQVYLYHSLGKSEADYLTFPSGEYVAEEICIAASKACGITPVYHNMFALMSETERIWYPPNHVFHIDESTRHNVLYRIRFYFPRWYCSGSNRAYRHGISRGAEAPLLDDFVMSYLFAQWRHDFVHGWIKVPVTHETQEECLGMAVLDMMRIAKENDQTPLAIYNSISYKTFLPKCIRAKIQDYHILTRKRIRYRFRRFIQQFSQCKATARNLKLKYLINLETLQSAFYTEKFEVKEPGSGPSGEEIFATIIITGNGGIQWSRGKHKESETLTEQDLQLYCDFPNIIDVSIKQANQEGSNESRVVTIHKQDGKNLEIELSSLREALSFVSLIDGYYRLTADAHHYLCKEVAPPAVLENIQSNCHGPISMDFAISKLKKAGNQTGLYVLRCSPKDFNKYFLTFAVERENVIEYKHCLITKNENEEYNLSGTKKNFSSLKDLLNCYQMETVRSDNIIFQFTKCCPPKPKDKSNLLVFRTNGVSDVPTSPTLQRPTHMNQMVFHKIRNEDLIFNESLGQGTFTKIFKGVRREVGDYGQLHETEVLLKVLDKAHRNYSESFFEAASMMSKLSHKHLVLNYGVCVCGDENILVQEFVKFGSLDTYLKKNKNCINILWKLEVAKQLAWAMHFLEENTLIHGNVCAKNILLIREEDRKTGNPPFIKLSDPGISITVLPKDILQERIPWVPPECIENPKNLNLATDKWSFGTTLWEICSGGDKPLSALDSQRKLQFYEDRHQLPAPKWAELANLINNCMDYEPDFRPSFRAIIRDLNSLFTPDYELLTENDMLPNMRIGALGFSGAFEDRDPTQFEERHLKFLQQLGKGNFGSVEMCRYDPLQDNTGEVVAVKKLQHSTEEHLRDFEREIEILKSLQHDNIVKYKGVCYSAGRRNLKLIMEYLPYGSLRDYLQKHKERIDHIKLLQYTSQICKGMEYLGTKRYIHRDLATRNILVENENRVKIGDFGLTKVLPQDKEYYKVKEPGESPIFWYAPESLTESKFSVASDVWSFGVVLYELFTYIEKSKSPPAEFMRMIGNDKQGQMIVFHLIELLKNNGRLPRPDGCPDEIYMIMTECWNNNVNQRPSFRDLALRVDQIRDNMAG
Chain of EGFR (ErbB1) T790M L858R (P00533 25-1210 T790M/L858R): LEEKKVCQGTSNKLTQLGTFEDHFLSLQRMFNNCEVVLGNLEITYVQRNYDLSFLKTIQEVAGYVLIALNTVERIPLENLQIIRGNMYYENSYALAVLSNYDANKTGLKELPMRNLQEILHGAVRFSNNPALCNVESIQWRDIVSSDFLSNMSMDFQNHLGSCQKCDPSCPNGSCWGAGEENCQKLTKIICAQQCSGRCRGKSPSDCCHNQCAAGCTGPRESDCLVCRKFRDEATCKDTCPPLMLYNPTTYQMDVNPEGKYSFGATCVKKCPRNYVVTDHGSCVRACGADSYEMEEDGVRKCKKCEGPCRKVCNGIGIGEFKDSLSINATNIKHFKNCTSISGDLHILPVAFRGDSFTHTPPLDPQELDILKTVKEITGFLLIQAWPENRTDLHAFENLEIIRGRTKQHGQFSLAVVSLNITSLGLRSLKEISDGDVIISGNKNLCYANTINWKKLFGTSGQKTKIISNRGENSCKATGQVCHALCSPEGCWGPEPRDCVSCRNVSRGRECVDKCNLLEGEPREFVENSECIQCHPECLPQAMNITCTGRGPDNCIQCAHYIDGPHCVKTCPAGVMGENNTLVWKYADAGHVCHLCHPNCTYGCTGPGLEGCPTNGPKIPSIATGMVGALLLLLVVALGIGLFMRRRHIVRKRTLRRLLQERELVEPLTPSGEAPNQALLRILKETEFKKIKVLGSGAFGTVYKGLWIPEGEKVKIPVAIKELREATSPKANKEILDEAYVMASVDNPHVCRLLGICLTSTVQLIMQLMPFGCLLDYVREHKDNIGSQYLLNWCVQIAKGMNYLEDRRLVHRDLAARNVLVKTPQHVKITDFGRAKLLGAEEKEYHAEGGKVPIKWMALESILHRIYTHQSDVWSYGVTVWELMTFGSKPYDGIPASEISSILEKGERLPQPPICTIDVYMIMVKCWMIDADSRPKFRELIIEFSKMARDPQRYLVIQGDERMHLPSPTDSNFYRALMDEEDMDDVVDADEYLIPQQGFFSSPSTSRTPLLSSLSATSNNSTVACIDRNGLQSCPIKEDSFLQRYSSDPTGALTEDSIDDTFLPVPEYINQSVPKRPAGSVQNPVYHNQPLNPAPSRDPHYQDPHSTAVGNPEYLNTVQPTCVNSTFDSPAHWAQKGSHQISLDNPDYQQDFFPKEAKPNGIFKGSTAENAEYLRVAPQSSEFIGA

Compound: C=CC(=O)Nc1cccc(-c2cccc3cnc(Nc4ccc(N5CCN(C(C)=O)CC5)cc4)nc23)c1 [Example C032, N-(3-(2-((4-(4-acetylpiperazin-1-yl)phenyl)amino)quinazolin-8-yl)phenyl)acrylamide]
- IC50 (H1975 cells): 100 to 500 nM
- IC50 (H1299 cells): > 500 nM
- inhibition at 1 µM (EGFR (ErbB1)): > 50%
- IC50 (EGFR (ErbB1) T790M L858R): < 100 nM
- IC50 (A431 cells): 100 to 500 nM
- inhibition at 0.041 µM (BTK): > 50%
- IC50 (HCC827 cells): < 100 nM
- inhibition at 0.041 µM (JAK2): > 50%
